Measurements: patent publication US20020142287A1, “High throughput assay to detect inhibitors of the map kinase pathway” (priority 2000, published 2002)
Entries after “also recorded” stand apart in the source; their conditions may differ.

What was measured:
SNB-19 cells [1] = test: Growth-stimulated induction of c-fos and invasion-associated mRNA in quiescent cells plated into fresh growth media, Northern analysis; format: cell-based, human; details: for effect on expression of uPA, GnT-V and c-ets-1 mRNA induced by growth stimulation: 2 and 6 hr after plating into fresh growth media
Protocol: (§1) Procedure for Northern Blot. Surgical specimens were immediately frozen in liquid nitrogen upon resection. Total RNA was isolated from clinical glioma specimens and cultured brain tumor cells using guanidium isothiocyanate followed by […] centrifugation. 10-20 μg of total RNA per tumor cell line per lane were electrophoresed in an agarose-formaldehyde gel and transferred to Duralon nylon membranes (Stratagene, La Jolla, Calif.). After UV cross-linking, the blots were hybridized with a ^32P-radiolabeled cDNA probe synthesized by using a random priming kit (Stratagene, La Jolla, Calif.) and ExpressHyb solution (Clontech, Palo Alto, Calif.). The blots were then exposed to X-OMAT film (Kodak, Rochester, N.Y.) and the films were developed appropriately.
Modulators of the MAPK pathway also modulated the growth-stimulated mRNA expression of c-Fos and invasion-related protein MRNA expression. Quiescent SNB-19 cells were plated in fresh growth media either in the presence of 80 μM PD98059, a MEK/MAPKK inhibitor, or the absence of inhibitor, as a control. Induction was measured by observing MRNA expression over time (FIG. 6).
Quiescent SNB-19 cells were growth induced by plating into fresh growth media for 2 and 6 hr. c-Fos expression was monitored by observing the mRNA levels of the downstream genes uPA, GNT-V, and c-ets-1 (see FIG. 8).

SNB-19 cells [2] = test: Induction of invasion-associated gene mRNA by phorbol ester, Northern analysis; format: cell-based, human; details: 150 nM PDBu, 24 hr incubation
Protocol: as §1
The effects of a test compound, a phorbol ester (a Protein Kinase C (PKC) activator), on the coordinated expression of a panel of sequences was determined. SNB-19 cells were cultured in the presence of 150 nM phorbol 12, 13-dibutyrate (PDBu, Sigma Chemical Co.) for 24 hr. Expression of GnT-V, c-ets-1, uPA, MMP-1, and MMP-3 mRNA was then assayed by northern blot on total RNA from the cells. A panel of nucleic acid probes corresponding to GnT-V, c-ets-1, uPA, MMP-1, and MMP-3 were prepared as described above and utilized to detect expression of the corresponding mRNA in treated or untreated SNB-19 cells. […]

[3] = tested on: c-fos promoter/luciferase gene transfectant (clone 60) of SNB-19 glioma cells; test: Luciferase mRNA expression in stable c-fos promoter/luciferase gene transfectant, Northern analysis; format: cell-based, human; details: 1, 2, 3, 6, and 24 hr in the presence of inhibitor
Protocol: A quiescent c-fos promoter/luciferase gene transfectant (clone 60) was plated into fresh growth media and incubated for 1, 2, 3, 6, and 24 hr in the presence of MEK/MAPKK inhibitors, and the cells were harvested for detection of luciferase mRNA expression by Northern analysis. 10 μg of total RNA per lane were used.
The 498 bp promoter region of the human c-Fos gene was amplified by genomic PCR using sense primer 5′-[…]-3′ (SEQ ID No. 7) and antisense primer 5′-[…]-3′ (SEQ ID No. 8), ligated into the pCR II vector (Invitrogen, San Diego, Calif.). […] Antisense orientation of the c-fos promoter/pCR II plasmid was digested with Hind III and Xho I restriction enzymes and the digested fragment was ligated into the Hind III and Xho I sites of the luciferase vector pGL3-basic (Promega, Madison, Wis.). The c-fos promoter/pGL3 plasmid DNA was digested with Sma I and Xba I and the digested fragment was ligated into the Nru I and Xba I sites of the pcDNA 3 vector (Invitrogen). This final construct contains the luciferase gene under control of the c-fos promoter instead of the control of the CMV promoter. The plasmid DNA was stably transfected into human glioma SNB-19 cells using the cationic liposome system, DOTAP (Boehringer Mannheim, Indianapolis, Ind.). The transfected cells were further cultured for 3 weeks in selection medium containing 800 μg/ml of G418 and then individual clones were isolated with cloning rings. Isolated clones were further cultured for 4 weeks in selection medium and were examined for luciferase gene expression by Northern analysis. […] Three representative clones (34, 56, and 60) were further characterized.
The suppression of luciferase gene expression by inhibitors of MAPK pathway in the stable transfectants was determined.

[4] = tested on: c-Fos protein in SNB-19 cells; test: Growth-stimulated c-Fos protein induction, Western blot; format: cell-based, human; details: 50 μM U0126, 1 μM FTI, 50 μM PD98059; for c-Fos protein induction: 0.5-8 hr after plating
Protocol: Quiescent SNB-19 cells were plated into fresh growth media and incubated for 0.5, 1, 2, 3, 4, 6, and 8 hr in the presence of inhibitors of the MAPK pathway, and the cells were harvested for c-Fos protein analysis by Western blot. 20 μg of total protein per lane were used. c-Fos protein induction without inhibitors was shown as a control.
Procedure for Western Blot. To detect c-Ets-1 and c-Fos protein expression in brain tumor cell lines, 20 μg of protein cell lysates were loaded on a 8% SDS-polyacrylamide gel immediately after boiling each sample in the presence of 2% mercaptoethanol. After electrophoresis, proteins were transferred to a PVDF membrane and the membrane was blocked with 5% BSA in PBS. The membrane was then incubated with either a 1:10,000 dilution of monoclonal anti-human c-Ets-1 antibody (Clone 47, Transduction Laboratory, Ky.) or anti-human c-Fos antibody (Santa Cruz Biotechnology, Inc.) in Tris-buffered saline pH 7.4 (TBS) containing 2% BSA and 0.1% Tween 20 for 1 h at room temperature. The membrane was then washed with TBS containing 2% BSA and 0.1% Tween 20 for 10 min, followed by washing twice with 0.1% Tween 20 in TBS. Next, the membrane was incubated with a 1:10000 dilution of horseradish peroxidase-conjugated anti-mouse IgG (Amersham, UK) for 1 h at room temperature in 2% BSA in TBS containing 0.1% Tween 20. The membrane was then washed as described above, and developed with the ECL Chemiluminescence detection system (Amersham, UK) according to manufacturer's instructions.

SNB-19 cells [5] = test: Suppression of PDBu-mediated mRNA induction by a MAPKK inhibitor, Northern analysis; format: cell-based, human
Protocol: as §1
The assay was modified for use in the identification of compounds that can inhibit gene expression. To identify compounds that may affect the growth, migration or invasivity of tumor cells, the assay described below is provided. To activate the quiescent cells, SNB-19 glioma cells are cultured in the presence of 150 nM Phorbol 12, 13-dibutyrate (PDBu, Sigma Chemical Co.) for 24 hr. The cells are then contacted with a test compound that may affect expression of GnT-V, c-ets-1, uPA, MMP-1, or MMP-3. Compounds shown to inhibit expression of any, multiple, or all of the sequences are selected for further study. […]

MEK/MAPK Kinase (MAPKK) = details: cited from earlier work
[6] = tested on: p42/p44 ERK/MAPK proteins; details: 50 μM U0126, SNB-19 cells
Protocol: Quiescent SNB-19 cells were plated into fresh growth media and incubated for 0.5, 1, 2, 3, 4, 6, and 8 hr, and the cells were harvested for Northern analysis (FIG. 10A-10C) and Western blot analysis (FIG. 10D).

SNB-19 glioma cells = details: data not shown

## COc1cc2ncnc(Nc3cccc(Br)c3)c2cc1OC [PD153035]
SNB-19 cells [1]
  effect on expression of uPA, GnT-V and c-ets-1 mRNA induced by growth stimulation: no effect

## COC[C@H]1OC(=O)c2coc3c2[C@@]1(C)C1=C(C3=O)[C@@H]2CCC(=O)[C@@]2(C)C[C@H]1OC(C)=O [Wortmannin]
SNB-19 cells [1]
  effect on expression of uPA, GnT-V and c-ets-1 mRNA induced by growth stimulation: no effect

## CCCC(=O)O[C@@H]1[C@@H](C)[C@@]2(O)[C@@H](C=C(CO)C[C@]3(O)C(=O)C(C)=C[C@@H]23)[C@@H]2C(C)(C)[C@]12OC(=O)CCC [PDBu, Phorbol 12, 13-dibutyrate]
SNB-19 cells [2]
  induction of GnT-V, c-ets-1, uPA, MMP-1, and MMP-3 mRNA expression: marked induction; also recorded: induced

## COc1cccc(-c2cc(=O)c3ccccc3o2)c1N [PD98059, 2′-amino-3′-methoxyflavone]
SNB-19 cells [1]; 80 μM PD98059, 0.5-8 hr after plating into fresh growth media
  growth-stimulated induction of c-fos, c-ets-1, GnT-V, and uPA mRNA expression: suppression; also recorded: suppressed
[3]
  luciferase mRNA expression: slightly suppressed
[3]; listed as PD98056
  luciferase mRNA expression: suppress
[4]
  potency of inhibition of c-Fos protein induction (rank order): 50 μM U0126>1 μM FTI>50 μM PD98059
  c-Fos protein induction: weak suppression
SNB-19 cells [5]; 150 nM PDBu 24 hr, 15 and 80 μM PD98059, 15 μM
  PDBu-induced GnT-V, c-ets-1, MMP-1, and MMP-3 mRNA induction (b19 also uPA): completely abolished
SNB-19 cells [5]; 150 nM PDBu, PD98059 15 and 80 μM
  uPA mRNA expression in PDBu-stimulated cells: decreased in a dose-dependent manner

## N#CC(=C(/N)Sc1ccccc1N)/C(C#N)=C(\N)Sc1ccccc1N [U0126]
SNB-19 cells [1]; 50 μM U0126, 0.5-8 hr after plating into fresh growth media
  growth-stimulated induction of GnT-V, uPA and c-ets-1 mRNA expression: strongly suppressed; also recorded: suppressed the induction
MEK/MAPK Kinase (MAPKK)
  potency as MEK/MAPKK inhibitor relative to PD98059: 30 times
[3]
  luciferase mRNA expression: greatly suppressed; also recorded: greater inhibition
[6]
  phosphorylation of p42/p44 ERK/MAPK: completely inhibited
[4]
  potency of inhibition of c-Fos protein induction (rank order): 50 μM U0126>1 μM FTI>50 μM PD98059
  c-Fos protein induction: completely inhibited
SNB-19 glioma cells
  adhesion-mediated protein tyrosine phosphorylation: little effect
